Data reported in US12018083B2, “Method for suppressing regulatory T cell infiltration by CCR4 inhibition and method for treating canine neoplastic disease” (NIPPON ZENYAKU KOGYO CO., LTD., priority 2017, dated 2024).

Assays:
canine CCR4 = target: T1, canine CCR4 (Canis lupus familiaris, UniProt Q8MJW8); test: Chemotaxis assay with a membrane chamber, canine lymphocyte cell line CL-1 and canine recombinant CCL17; assay type: cell-based; details: canine lymphocyte cell line CL-1; FIG. 8
T1 construct: Using a canine lymphocyte cell line (CL-1) expressing canine recombinant CCL17 and CCR4, a chemotaxis assay was carried out; endogenous in cells; host or cells: CL-1 canine lymphocyte cell line
T1 sequence (Q8MJW8 1-360): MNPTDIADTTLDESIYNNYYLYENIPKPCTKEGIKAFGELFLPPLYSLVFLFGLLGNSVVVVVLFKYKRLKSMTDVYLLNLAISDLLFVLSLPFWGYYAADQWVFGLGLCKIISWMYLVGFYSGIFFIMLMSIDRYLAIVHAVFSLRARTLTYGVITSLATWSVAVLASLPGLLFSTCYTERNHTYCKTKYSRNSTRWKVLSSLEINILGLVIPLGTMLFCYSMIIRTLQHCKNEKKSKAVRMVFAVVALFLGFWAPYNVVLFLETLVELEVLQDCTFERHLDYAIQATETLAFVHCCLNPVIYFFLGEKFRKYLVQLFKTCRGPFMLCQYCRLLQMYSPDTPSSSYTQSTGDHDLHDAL
Description: Thus, the cross-reactivity of these inhibitors with canine CCR4 was studied. Using a canine lymphocyte cell line (CL-1) expressing canine recombinant CCL17 and CCR4, a chemotaxis assay was carried out with a membrane chamber.

[1] = test system: CCR4-positive T cells in blood; test: Single intravenous administration of anti-human CCR4 antibody to healthy dog; assay type: in vivo
Source text: Furthermore, the effects were sustained for 3 to 4 weeks. […] These side effects were improved 1 week after the administration, without any treatments.

breast cancer = test: Clinical test on dogs, antitumor effects; assay type: in vivo, dog; details: 1/2 cases, 1 mg/kg intravenous every three weeks; FIG. 17
[2] = test system: transitional cell carcinoma; test: Clinical test on dogs, antitumor effects; assay type: in vivo, dog; details: 5/11 cases, 1 mg/kg intravenous every three weeks; FIG. 15
prostate cancer = test: Clinical test on dogs, antitumor effects; assay type: in vivo, dog; details: 2/4 cases, 1 mg/kg intravenous every three weeks; FIG. 16
[3] = test system: canine transitional cell carcinoma cell line; test: Cancer-bearing mouse models, NOG mice transplanted with canine tumor cells; assay type: in vivo
Description: A comparison was made among the groups, in terms of the tumor volume of the transplanted transitional cell carcinoma cells. […] The tumor tissues were collected from each group at the end point, and the collected tumor tissues were subjected to a histopathologic examination involving H & E (Hematoxylin-Eosin) staining. […] In FIG. 11, the whitish portion in the black-and-white photograph indicates a focus of necrosis. […] Furthermore, intratumoral infiltration of Tregs was evaluated by performing immunohistochemistry on Foxp3. […] In FIG. 12, the portions seen as black points in the black-and-white photograph are sites in which Foxp3-positive Tregs are present.

[4] = test system: CCR4-positive Tregs in the peripheral blood; test: Clinical test on dogs with various tumors, all 17 cases; assay type: in vivo, dog; details: 1 mg/kg intravenous every three weeks
Source text: In the case of prostate cancer, 2/4 cases (50%) had partial response, and 2/4 cases (50%) were stable (FIG. 16). In the case of breast cancer, 1/2 cases (50%) had partial response, and 1/2 cases (50%) was stable (FIG. 17). […] However, all of the side effects were mild.

[5] = test system: canine transitional cell carcinoma; test: Clinical test of Mogamulizumab combined with Piroxicam versus Piroxicam alone
Description: To the control group, Piroxicam alone was administered (14 cases). The number of CCR4-positive Tregs in the peripheral blood and a tumor size were evaluated before and after the administration.
In the figure, the terms “PR,” “SD,” and “PD” indicate definitions regarding a change in the size of a tumor in the midcourse of a treatment according to RECIST (Response Evaluation Criteria in Solid Tumors), which are evaluation criteria regarding therapeutic effects on solid cancers. Specifically, PR (Partial Response) indicates a state in which a sum of the sizes of tumors has been reduced by 30% or more, SD (Stable Disease) indicates a state in which the size of a tumor has not changed, and PD (Progressive Disease) indicates a state in which a sum of the sizes of tumors has been increased by 20% or more and the size has been increased by 5 mm or more as an absolute value, or a state in which a new lesion has appeared.

COc1cc2nc(N3CCC(N4CCCCC4)CC3)nc(NC3CCCCCC3)c2cc1OC.Cl.Cl [C-021, 2-[1,4′-bipiperidin]-1′-yl-N-cycloheptyl-6,7-dimethoxy-4-quinazolinamine dihydrochloride]
migration of CL-1 by the recombinant CCL17 (canine CCR4): significantly suppressed

Mogamulizumab: anti-human CCR4 antibody (Kyowa Kirin Co., Ltd.), a neutralizing antibody
side effects ([1]; 1 mg/kg intravenous): nausea, a slight increase in ALP, and a slight increase in CRP
time after administration at which side effects improved without any treatments ([1]; 1 mg/kg intravenous): 1 week
number of CCR4-positive T cells in blood ([1]; 1 mg/kg intravenous, flow cytometry, FIG. 9): reduced by half
side effects ([1]; 0.01 to 0.1 mg/kg intravenous): no side effects were found
cases with partial response (breast cancer): 50%
migration of CL-1 by the recombinant CCL17 (canine CCR4): significantly suppressed
cases with partial response [2]: 45.5%
cases with partial response (prostate cancer): 50%
intratumoral infiltration of Tregs (Foxp3 immunohistochemistry) ([3]; combined use group of canine PBMC and Mogamulizumab versus canine PBMC group, FIG. 12, 13): significantly suppressed
focus of necrosis in tumor tissue (H & E staining) ([3]; combined use group of canine PBMC and Mogamulizumab, compared with other groups, FIG. 11): an expansion of the focus of necrosis was observed
growth of the tumor (tumor volume) ([3]; combined use group of canine PBMC and Mogamulizumab, FIG. 10): significantly suppressed
side effect: facial edema and/or redness, cases ([4]; 1/17 cases): 5.9%
side effect: slight increase in ALP, cases ([4]; 3/17 cases): 17.6%
side effect: vomiting, cases ([4]; 3/17 cases): 17.6%
severity of all of the side effects ([4]; 17 cases): mild
number of CCR4-positive Tregs in peripheral blood ([4]; all cases, FIG. 14): drastically reduced
number of CCR4-positive Tregs in the peripheral blood ([5]; after Mogamulizumab 1 mg/kg IV every three weeks plus Piroxicam 0.3 mg/kg PO daily, FIG. 18, 19): reduced
response percentage according to RECIST ([5]; combined use group with Mogamulizumab versus single administration group of Piroxicam, FIG. 22, 23): higher response percentage
progression-free survival periods (PFS) ([5]; combined use group with Mogamulizumab versus single administration group of Piroxicam, FIG. 24): better improvement
overall survival periods (OS) ([5]; combined use group with Mogamulizumab versus single administration group of Piroxicam, FIG. 25): better improvement
tumor (mass) size / tumor volume ([5]; combined use group with Mogamulizumab, FIG. 20, 21): reduced
